Source: ChEMBL document CHEMBL1201862, “PubChem BioAssay data set” (2004)
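In this assay, cells in 96-well plates receive the compound at five concentrations for 48 hours. Endpoints are linearly interpolated between the surrounding concentrations. GI50 = concentration required for 50% inhibition of growth.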 The source made the active and inactive calls. No stated cut-off is given here; in the data, active = GI50 up to about 1.1 µM and inactive = higher.

Tests used:
Assay in all cases: NCI-60 cell line screen, 48 h
T47D = test system: T47D
CCRF-CEM = test system: CCRF-CEM
SF-295 = test system: SF-295
NCI-H23 = test system: NCI-H23
NCI/ADR-RES = test system: NCI/ADR-RES
HL-60 = test system: HL-60
MDA-MB-435 = test system: MDA-MB-435
SNB-19 = test system: SNB-19
HCC 2998 = test system: HCC 2998
HCT-116 = test system: HCT-116
MDA-MB-231 = test system: MDA-MB-231
UACC-62 = test system: UACC-62
A549 = test system: A549
OVCAR-8 = test system: OVCAR-8
SW-620 = test system: SW-620
ACHN = test system: ACHN
UO-31 = test system: UO-31
HOP-92 = test system: HOP-92
DU-145 = test system: DU-145
HCT-15 = test system: HCT-15
MDA-N = test system: MDA-N
HT-29 = test system: HT-29
MOLT-4 = test system: MOLT-4
HOP-62 = test system: HOP-62
EKVX = test system: EKVX
NCI-H522 = test system: NCI-H522
Malme-3M = test system: Malme-3M
OVCAR-3 = test system: OVCAR-3
SF-539 = test system: SF-539
NCI-H226 = test system: NCI-H226
RPMI-8226 = test system: RPMI-8226
SK-MEL-2 = test system: SK-MEL-2
UACC-257 = test system: UACC-257
TK-10 = test system: TK-10
Hs-578T = test system: Hs-578T
CAKI-1 = test system: CAKI-1
IGROV-1 = test system: IGROV-1
SK-MEL-28 = test system: SK-MEL-28
COLO 205 = test system: COLO 205
U-251 = test system: U-251
NCI-H460 = test system: NCI-H460
SK-OV-3 = test system: SK-OV-3
SN12C = test system: SN12C
OVCAR-5 = test system: OVCAR-5
A498 = test system: A498
SNB-75 = test system: SNB-75
RXF 393 = test system: RXF 393
M14 = test system: M14
786-0 = test system: 786-0
LOX IMVI = test system: LOX IMVI
MCF7 = test system: MCF7
OVCAR-4 = test system: OVCAR-4
SF-268 = test system: SF-268
KM12 = test system: KM12
BT-549 = test system: BT-549
SK-MEL-5 = test system: SK-MEL-5
PC-3 = test system: PC-3
K562 = test system: K562
SR = test system: SR
KM-20L2 = test system: KM-20L2
DMS-114 = test system: DMS-114
SNB-78 = test system: SNB-78
LXFL 529 = test system: LXFL 529

Measured: GI50

CC(C)/C(Cl)=N/OC(=O)Nc1ccc(Cl)c(Cl)c1
2.33 µM: HCT-15
active: CCRF-CEM 0.851 µM | K562 0.989 µM
inactive: T47D 4.29 µM | SF-295 17.7 µM | NCI-H23 15.3 µM | NCI/ADR-RES 16.7 µM | HL-60 1.76 µM | MDA-MB-435 5.68 µM | SNB-19 21.5 µM | HCC 2998 14.9 µM | HCT-116 2.18 µM | MDA-MB-231 14.9 µM | UACC-62 13.6 µM | A549 21.4 µM | OVCAR-8 18.1 µM | SW-620 2.13 µM | ACHN 1.99 µM | UO-31 15.3 µM | HOP-92 1.72 µM | DU-145 18.1 µM | MDA-N 3.59 µM | HT-29 5.48 µM | MOLT-4 2.49 µM | HOP-62 18.2 µM | EKVX 2 µM | NCI-H522 1.58 µM | Malme-3M 2.16 µM | OVCAR-3 2.58 µM | SF-539 13.6 µM | NCI-H226 18.1 µM | RPMI-8226 2.36 µM | SK-MEL-2 18.4 µM | UACC-257 14.6 µM | TK-10 5.86 µM | Hs-578T 23.7 µM | CAKI-1 1.75 µM | IGROV-1 11.7 µM | SK-MEL-28 2.01 µM | COLO 205 1.83 µM | U-251 21.2 µM | NCI-H460 17 µM | SK-OV-3 17.1 µM | SN12C 1.91 µM | OVCAR-5 16 µM | A498 18 µM | SNB-75 19.7 µM | RXF 393 13.4 µM | M14 2.45 µM | 786-0 1.96 µM | LOX IMVI 1.64 µM | MCF7 9.93 µM | OVCAR-4 9.31 µM | SF-268 18.2 µM | KM12 17.5 µM | BT-549 4.84 µM | SK-MEL-5 11.6 µM | PC-3 16.6 µM | SR 2.49 µM

Cc1ccccc1C(=O)C1CCCCC1O (centres undefined)
inactive: NCI-H23 > 100 µM | HL-60 > 100 µM | SNB-19 > 100 µM | HCC 2998 > 100 µM | KM-20L2 > 100 µM | HCT-116 > 100 µM | UACC-62 > 100 µM | A549 > 100 µM | SW-620 > 100 µM | ACHN > 100 µM | UO-31 > 100 µM | HOP-92 > 100 µM | MOLT-4 > 100 µM | HOP-62 > 100 µM | EKVX > 100 µM | Malme-3M > 100 µM | OVCAR-3 > 100 µM | NCI-H226 > 100 µM | SK-MEL-2 > 100 µM | TK-10 > 100 µM | CAKI-1 > 100 µM | IGROV-1 > 100 µM | U-251 > 100 µM | SK-OV-3 > 100 µM | SN12C > 100 µM | OVCAR-5 > 100 µM | DMS-114 > 100 µM | SNB-75 > 100 µM | RXF 393 > 100 µM | M14 > 100 µM | 786-0 > 100 µM | LOX IMVI > 100 µM | SNB-78 23.8 µM | LXFL 529 > 100 µM | OVCAR-4 > 100 µM | SF-268 > 100 µM | KM12 > 100 µM | SK-MEL-5 > 100 µM | K562 > 100 µM
> 100 µM: HCT-15
